Target: T1, CCR2 (Mus musculus, UniProt P51683)
T1 construct: membranes from Ba/F3 cells transfected with mouse CCR2
Experiment: […]-rhCCL2 radioligand displacement, SPA, on membranes in mouse plasma
Type: binding

T1 sequence (P51683 whole entry): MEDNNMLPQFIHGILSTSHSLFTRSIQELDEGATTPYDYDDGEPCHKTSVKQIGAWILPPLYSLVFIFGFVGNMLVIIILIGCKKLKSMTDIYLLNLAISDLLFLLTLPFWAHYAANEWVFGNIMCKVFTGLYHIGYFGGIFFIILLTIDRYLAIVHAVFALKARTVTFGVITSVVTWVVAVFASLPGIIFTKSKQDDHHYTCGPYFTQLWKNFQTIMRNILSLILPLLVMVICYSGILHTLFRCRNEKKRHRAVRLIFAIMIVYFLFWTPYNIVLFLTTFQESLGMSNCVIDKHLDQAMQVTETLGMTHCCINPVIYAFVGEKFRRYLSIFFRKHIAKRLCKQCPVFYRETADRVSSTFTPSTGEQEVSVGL

- IC50: 19 nM
SMILES: CO[C@@H]1COCC[C@@H]1N[C@@H]1CC[C@@](C(=O)N2CCc3ncc(C(F)(F)F)cc3C2)(C(C)C)C1 [MK0812]

— paper PMC2777898, “CCR2 and CXCR4 regulate peripheral blood monocyte pharmacodynamics and link to efficacy in experimental autoimmune encephalomyelitis” (Journal of Inflammation (London, England), 2009)
